From ChEMBL document CHEMBL1909046, “DrugMatrix in vitro pharmacology data”

Experiments:
[1] = target: 5-hydroxytryptamine receptor 4 (Cavia porcellus, UniProt O70528); assay type: cell membranes, Dunkin-Hartley, Striatum, Membrane; note: in other assays of this panel Not Active means under 50% inhibition at 10 µM
[2] = target: Matrix metalloproteinase-9 (Homo sapiens, UniProt P14780); assay type: cell-based;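 note: inhibition of isolated MMP-9 enzyme activity toward a synthetic peptide substrate, from the DrugMatrix protease screening panel; in other assays of this panel Not Active means under 50% inhibition at 10 µM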
[3] = target: 5-hydroxytryptamine receptor 6 (Homo sapiens, UniProt P50406); assay type: cell membranes, HeLa, Membrane; details: hela; note: in other assays of this panel Not Active means under 50% inhibition at 10 µM
[4] = DRUGMATRIX: Atrial Natriuretic Factor (ANF) radioligand binding (ligand: [125I] ANF (rat)); assay type: cell membranes, Cavia porcellus, Dunkin-Hartley, Adrenal gland, Membrane; details: Not Active = under 50% inhibition at 10 µM
[5] = target: T1, C-X-C chemokine receptor type 2 (Homo sapiens, UniProt P25025); assay type: cell membranes, Membrane; details: cho-k1; note: in other assays of this panel Not Active means under 50% inhibition at 10 µM
T1 sequence (P25025 whole entry): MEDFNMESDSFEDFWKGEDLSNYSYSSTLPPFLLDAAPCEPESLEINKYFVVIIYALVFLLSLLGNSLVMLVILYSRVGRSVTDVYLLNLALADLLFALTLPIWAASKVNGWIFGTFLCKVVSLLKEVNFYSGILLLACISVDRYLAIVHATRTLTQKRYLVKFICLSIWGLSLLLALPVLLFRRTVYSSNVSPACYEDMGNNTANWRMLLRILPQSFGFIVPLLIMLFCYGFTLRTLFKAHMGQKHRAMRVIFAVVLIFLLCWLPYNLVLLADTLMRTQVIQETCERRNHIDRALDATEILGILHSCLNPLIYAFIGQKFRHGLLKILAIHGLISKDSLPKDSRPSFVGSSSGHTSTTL

Calcitonin receptor = target: T2, Calcitonin receptor (Homo sapiens, UniProt P30988); assay type: cell membranes, Membrane; details: t47d; note: in other assays of this panel Not Active means under 50% inhibition at 10 µM
T2 sequence (P30988 whole entry): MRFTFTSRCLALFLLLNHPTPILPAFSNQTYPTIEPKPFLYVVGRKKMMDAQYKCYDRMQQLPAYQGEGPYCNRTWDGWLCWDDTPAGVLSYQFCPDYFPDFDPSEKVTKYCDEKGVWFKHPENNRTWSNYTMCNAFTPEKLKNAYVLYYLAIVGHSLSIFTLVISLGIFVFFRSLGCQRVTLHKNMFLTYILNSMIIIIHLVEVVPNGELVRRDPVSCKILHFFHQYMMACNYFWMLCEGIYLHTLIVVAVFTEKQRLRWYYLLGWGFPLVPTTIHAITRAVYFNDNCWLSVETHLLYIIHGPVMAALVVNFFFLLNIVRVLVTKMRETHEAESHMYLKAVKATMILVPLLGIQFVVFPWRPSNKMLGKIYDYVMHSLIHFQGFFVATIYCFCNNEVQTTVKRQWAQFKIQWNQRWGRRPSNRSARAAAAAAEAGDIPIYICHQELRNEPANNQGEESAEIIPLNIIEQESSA

[6] = target: T3, Vasoactive intestinal polypeptide receptor 1 (Homo sapiens, UniProt P32241); assay type: cell membranes, Membrane; details: ht-29; note: in other assays of this panel Not Active means under 50% inhibition at 10 µM
T3 sequence (P32241 whole entry): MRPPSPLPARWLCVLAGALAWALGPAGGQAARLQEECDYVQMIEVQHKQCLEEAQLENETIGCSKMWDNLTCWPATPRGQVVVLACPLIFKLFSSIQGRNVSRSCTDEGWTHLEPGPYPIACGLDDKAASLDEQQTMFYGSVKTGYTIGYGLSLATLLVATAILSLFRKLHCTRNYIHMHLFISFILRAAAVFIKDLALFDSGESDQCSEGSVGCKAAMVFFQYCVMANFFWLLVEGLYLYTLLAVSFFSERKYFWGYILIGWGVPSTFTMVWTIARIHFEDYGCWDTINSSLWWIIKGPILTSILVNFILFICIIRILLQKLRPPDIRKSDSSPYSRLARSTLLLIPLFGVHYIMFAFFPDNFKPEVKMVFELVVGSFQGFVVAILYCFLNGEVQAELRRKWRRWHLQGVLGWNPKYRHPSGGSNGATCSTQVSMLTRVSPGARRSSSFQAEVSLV

Leukotriene C4 synthase = target: T4, Leukotriene C4 synthase (Cavia porcellus, UniProt A6XA80); experiment: biochemical; assay type: tissue-based, Lung
T4 sequence (A6XA80 whole entry): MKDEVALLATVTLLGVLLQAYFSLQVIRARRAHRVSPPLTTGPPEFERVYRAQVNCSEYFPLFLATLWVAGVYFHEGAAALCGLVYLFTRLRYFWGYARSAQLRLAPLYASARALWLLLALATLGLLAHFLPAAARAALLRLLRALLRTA

[7] = target: Vascular endothelial growth factor receptor 1 (Homo sapiens, UniProt P17948); assay type: cell-based; details: huvec; note: in other assays of this panel Not Active means under 50% inhibition at 10 µM
[8] = DRUGMATRIX: GABAA, Flunitrazepam, Central radioligand binding (ligand: [3H] Flunitrazepam); assay type: cell membranes, Rattus norvegicus, Wistar, Brain, Membrane; details: Not Active = under 50% inhibition at 10 µM
Thromboxane-A synthase = target: T5, Thromboxane-A synthase (Homo sapiens, UniProt P24557); experiment: biochemical; assay type: tissue-based, Platelet; details: platelet
T5 sequence (P24557 whole entry): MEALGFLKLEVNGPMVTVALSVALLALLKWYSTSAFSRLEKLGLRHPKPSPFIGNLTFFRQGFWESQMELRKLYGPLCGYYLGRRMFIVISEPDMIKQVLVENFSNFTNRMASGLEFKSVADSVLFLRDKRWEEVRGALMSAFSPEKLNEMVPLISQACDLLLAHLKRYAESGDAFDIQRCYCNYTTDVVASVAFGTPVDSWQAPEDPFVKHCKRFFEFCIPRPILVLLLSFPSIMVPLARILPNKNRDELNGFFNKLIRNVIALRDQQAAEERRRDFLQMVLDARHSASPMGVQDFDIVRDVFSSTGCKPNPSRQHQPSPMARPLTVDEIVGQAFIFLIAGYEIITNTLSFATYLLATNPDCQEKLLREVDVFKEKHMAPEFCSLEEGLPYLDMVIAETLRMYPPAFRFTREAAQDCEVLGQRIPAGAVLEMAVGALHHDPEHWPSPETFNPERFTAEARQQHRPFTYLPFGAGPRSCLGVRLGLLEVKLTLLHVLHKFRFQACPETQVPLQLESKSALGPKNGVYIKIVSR

Adenosine receptor A1 = target: T6, Adenosine receptor A1 (Homo sapiens, UniProt P30542); assay type: cell membranes, CHO, Membrane; details: cho
T6 sequence (P30542 whole entry): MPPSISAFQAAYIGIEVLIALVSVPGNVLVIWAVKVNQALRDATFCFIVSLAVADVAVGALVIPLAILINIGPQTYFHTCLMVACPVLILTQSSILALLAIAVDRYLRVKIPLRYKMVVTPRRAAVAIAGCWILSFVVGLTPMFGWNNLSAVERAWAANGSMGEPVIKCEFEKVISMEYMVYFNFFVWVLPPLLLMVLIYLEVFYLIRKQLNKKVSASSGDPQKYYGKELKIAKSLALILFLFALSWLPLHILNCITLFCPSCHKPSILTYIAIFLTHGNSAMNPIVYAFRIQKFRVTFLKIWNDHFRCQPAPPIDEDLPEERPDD

Cytochrome P450 3A4 = Cytochrome P450 3A4 (Homo sapiens, UniProt P08684); details: bti-tn-5b1-4; note: in other assays of this panel Not Active means under 50% inhibition at 10 µM
Sequence of Cytochrome P450 3A4 (P08684 whole entry): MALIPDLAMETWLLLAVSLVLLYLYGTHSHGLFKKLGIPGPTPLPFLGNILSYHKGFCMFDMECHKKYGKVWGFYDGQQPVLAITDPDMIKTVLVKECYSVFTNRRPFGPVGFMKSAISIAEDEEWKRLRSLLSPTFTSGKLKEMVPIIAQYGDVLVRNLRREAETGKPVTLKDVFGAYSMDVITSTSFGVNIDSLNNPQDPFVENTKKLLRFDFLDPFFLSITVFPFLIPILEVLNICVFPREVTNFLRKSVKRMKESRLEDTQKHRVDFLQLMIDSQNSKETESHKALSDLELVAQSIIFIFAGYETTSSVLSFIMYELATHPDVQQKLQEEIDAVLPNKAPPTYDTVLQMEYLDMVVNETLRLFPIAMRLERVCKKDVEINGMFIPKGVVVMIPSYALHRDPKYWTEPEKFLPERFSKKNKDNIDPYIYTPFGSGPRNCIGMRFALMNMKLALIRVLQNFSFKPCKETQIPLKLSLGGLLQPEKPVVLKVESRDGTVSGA

Sequence of Vascular endothelial growth factor receptor 1 (P17948 whole entry): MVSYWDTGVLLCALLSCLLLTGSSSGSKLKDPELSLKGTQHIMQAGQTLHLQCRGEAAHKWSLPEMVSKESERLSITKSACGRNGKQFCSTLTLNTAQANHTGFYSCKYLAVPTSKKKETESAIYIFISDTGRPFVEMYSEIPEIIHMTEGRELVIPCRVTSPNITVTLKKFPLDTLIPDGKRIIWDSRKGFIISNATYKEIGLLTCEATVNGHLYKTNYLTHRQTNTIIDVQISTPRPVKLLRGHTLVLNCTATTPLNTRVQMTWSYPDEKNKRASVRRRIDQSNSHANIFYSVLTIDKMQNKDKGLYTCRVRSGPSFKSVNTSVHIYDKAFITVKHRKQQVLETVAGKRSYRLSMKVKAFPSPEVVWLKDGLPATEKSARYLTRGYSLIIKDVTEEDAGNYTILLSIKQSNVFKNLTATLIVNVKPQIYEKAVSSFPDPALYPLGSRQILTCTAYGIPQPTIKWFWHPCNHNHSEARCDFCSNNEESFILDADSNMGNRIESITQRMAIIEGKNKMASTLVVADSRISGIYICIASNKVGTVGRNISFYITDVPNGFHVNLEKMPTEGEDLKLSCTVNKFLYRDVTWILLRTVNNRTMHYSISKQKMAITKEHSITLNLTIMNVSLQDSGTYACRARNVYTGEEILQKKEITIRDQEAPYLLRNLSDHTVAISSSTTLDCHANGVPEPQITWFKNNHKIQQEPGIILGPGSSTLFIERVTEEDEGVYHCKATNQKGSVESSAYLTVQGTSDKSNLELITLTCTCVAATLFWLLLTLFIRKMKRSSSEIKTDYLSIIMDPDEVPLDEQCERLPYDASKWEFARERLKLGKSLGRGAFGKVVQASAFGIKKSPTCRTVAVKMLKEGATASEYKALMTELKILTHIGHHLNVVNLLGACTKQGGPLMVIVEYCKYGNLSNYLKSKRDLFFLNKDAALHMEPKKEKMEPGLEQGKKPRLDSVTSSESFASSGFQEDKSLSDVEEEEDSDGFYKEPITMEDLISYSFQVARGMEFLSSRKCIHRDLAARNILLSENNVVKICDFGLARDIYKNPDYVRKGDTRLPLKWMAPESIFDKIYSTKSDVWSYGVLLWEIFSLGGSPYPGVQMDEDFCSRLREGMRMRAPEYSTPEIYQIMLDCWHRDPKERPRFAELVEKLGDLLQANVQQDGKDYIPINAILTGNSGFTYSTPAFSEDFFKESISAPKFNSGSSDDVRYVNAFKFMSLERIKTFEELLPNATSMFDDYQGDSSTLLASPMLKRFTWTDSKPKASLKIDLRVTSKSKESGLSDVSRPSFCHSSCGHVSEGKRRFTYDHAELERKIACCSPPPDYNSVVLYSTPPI
Sequence of Matrix metalloproteinase-9 (P14780 whole entry): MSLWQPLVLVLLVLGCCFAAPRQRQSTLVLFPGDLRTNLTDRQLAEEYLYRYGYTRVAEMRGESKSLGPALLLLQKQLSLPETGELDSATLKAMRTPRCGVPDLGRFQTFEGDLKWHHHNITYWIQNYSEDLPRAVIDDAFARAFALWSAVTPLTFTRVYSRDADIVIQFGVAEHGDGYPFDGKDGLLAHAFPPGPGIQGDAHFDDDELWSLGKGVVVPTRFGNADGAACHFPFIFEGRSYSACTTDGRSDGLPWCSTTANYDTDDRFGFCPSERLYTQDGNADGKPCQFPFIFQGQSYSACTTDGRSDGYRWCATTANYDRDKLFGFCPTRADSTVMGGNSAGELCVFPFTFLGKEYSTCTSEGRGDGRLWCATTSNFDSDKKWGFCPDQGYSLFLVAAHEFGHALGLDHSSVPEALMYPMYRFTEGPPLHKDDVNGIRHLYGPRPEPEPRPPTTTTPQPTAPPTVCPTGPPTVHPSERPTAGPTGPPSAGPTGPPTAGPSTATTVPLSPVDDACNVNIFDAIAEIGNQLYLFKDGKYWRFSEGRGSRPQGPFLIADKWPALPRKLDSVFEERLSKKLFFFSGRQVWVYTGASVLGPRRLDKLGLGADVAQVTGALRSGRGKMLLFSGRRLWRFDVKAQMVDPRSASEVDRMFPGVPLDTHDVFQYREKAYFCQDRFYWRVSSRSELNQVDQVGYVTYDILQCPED
Sequence of 5-hydroxytryptamine receptor 4 (O70528 whole entry): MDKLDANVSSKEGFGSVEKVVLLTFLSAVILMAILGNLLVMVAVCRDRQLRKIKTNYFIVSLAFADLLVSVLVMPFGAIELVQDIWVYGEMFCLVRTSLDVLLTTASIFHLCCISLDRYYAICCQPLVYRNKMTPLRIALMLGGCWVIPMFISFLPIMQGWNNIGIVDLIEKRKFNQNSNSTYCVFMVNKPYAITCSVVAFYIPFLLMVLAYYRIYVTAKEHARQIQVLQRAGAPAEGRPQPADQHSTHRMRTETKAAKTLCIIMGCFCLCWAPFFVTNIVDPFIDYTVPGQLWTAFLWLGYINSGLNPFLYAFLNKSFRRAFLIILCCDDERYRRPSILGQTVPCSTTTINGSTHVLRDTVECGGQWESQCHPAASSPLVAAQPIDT
Sequence of 5-hydroxytryptamine receptor 6 (P50406 whole entry): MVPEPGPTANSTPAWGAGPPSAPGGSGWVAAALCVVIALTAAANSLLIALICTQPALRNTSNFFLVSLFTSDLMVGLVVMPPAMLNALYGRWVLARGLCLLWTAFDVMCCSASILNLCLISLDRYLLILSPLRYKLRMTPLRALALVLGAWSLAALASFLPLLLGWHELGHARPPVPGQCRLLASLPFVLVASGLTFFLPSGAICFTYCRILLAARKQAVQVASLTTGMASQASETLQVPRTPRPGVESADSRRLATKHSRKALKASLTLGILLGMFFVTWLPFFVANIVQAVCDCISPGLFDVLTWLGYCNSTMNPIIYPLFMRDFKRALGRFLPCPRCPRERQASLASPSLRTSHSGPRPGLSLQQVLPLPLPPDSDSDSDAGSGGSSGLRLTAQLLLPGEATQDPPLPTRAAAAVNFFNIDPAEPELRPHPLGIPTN

In the case of CISPLATIN, the IC50 [1] is reported as “Not Active”, the Ki [1] is reported as “Not Active” and the IC50 [2] is reported as “Not Active”. The Ki [2] was “Not Active”, the IC50 [3] was “Not Active” and the Ki [3] was “Not Active”. For the same substance, the IC50 [4] was “Not Active”, the Ki [4] was “Not Active” and the IC50 ([5]; read-out: IC50) was 13.5 µM. The Ki ([5]; read-out: Ki) was 9.46 µM, the IC50 (Calcitonin receptor) was “Not Active” and the Ki (Calcitonin receptor) was “Not Active”. The IC50 [6] was “Not Active”, the Ki [6] was “Not Active” and the IC50 (Leukotriene C4 synthase) was “Not Active”. For the same substance, the Ki (Leukotriene C4 synthase) was “Not Active”, the IC50 [7] was “Not Active” and the Ki [7] was “Not Active”. The IC50 [8] was “Not Active”, the Ki [8] was “Not Active” and the IC50 (Thromboxane-A synthase; read-out: IC50) was 9.35 µM. The IC50 (Adenosine receptor A1) was “Not Active”, the Ki (Adenosine receptor A1) was “Not Active” and the IC50 (Cytochrome P450 3A4) was “Not Active”. The Ki (Cytochrome P450 3A4) was “Not Active”.
In the case of GOLD SODIUM THIOMALATE, the IC50 [1] is reported as “Not Active”, the Ki [1] is reported as “Not Active” and the IC50 [2] is reported as “Not Active”. The Ki [2] was “Not Active”, the IC50 [3] was “Not Active” and the Ki [3] was “Not Active”. The IC50 [4] was “Not Active”, the Ki [4] was “Not Active” and the IC50 [5] was “Not Active”. The Ki [5] was “Not Active”, the IC50 (Calcitonin receptor) was “Not Active” and the Ki (Calcitonin receptor) was “Not Active”. For the same substance, the IC50 [6] was “Not Active”, the Ki [6] was “Not Active” and the IC50 (Leukotriene C4 synthase) was “Not Active”. For the same substance, the Ki (Leukotriene C4 synthase) was “Not Active”, the IC50 [7] was “Not Active” and the Ki [7] was “Not Active”. The IC50 [8] was “Not Active”, the Ki [8] was “Not Active” and the IC50 (Thromboxane-A synthase) was “Not Active”. For the same substance, the Ki (Thromboxane-A synthase) was “Not Active”, the IC50 (Adenosine receptor A1) was “Not Active” and the Ki (Adenosine receptor A1) was “Not Active”. The IC50 (Cytochrome P450 3A4) was “Not Active” and the Ki (Cytochrome P450 3A4) was “Not Active”.
In the case of OXALIPLATIN, the IC50 [1] is reported as “Not Active”, the Ki [1] is reported as “Not Active” and the IC50 [2] is reported as “Not Active”. The Ki [2] was “Not Active”, the IC50 [3] was “Not Active” and the Ki [3] was “Not Active”. For the same substance, the IC50 [4] was “Not Active”, the Ki [4] was “Not Active” and the IC50 [5] was “Not Active”. The Ki [5] was “Not Active”, the IC50 (Calcitonin receptor) was “Not Active” and the Ki (Calcitonin receptor) was “Not Active”. For the same substance, the IC50 [6] was “Not Active”, the Ki [6] was “Not Active” and the IC50 (Leukotriene C4 synthase) was “Not Active”. The Ki (Leukotriene C4 synthase) was “Not Active”, the IC50 [7] was “Not Active” and the Ki [7] was “Not Active”. For the same substance, the IC50 [8] was “Not Active”, the Ki [8] was “Not Active” and the IC50 (Thromboxane-A synthase) was “Not Active”. The Ki (Thromboxane-A synthase) was “Not Active”, the IC50 (Adenosine receptor A1) was “Not Active” and the Ki (Adenosine receptor A1) was “Not Active”. The IC50 (Cytochrome P450 3A4) was “Not Active” and the Ki (Cytochrome P450 3A4) was “Not Active”.
